Results: patent publication US20040014696A1, “Specificity in treatment of diseases” (priority 2003, published 2004)

Experiments:
[1] = Liver radioactivity in mice after repeated oral dosing; format: in vivo; conditions: oral 300 mg/kg daily for 8 days; for Total Liver Radioactivity: Cmin in liver; for Modified Ribavirin in liver: analyte modified Ribavirin
[2] = RBC radioactivity in mice after repeated oral dosing; format: in vivo; conditions: oral 300 mg/kg daily for 8 days; for Medium RBC Radioactivity (Mice): Cmin in RBCs
[3] = Liver radioactivity estimated from portal vs systemic plasma in portal vein-cannulated monkeys; format: in vivo
[4] = biological target: T1, Adenosine deaminase (ADA) (Bos taurus, UniProt P56658); assay: In vitro deamination by adenosine deaminase (UV 240 nm, mass spectrum); format: biochemical, calf; conditions: 0.2 mM compound with 0.5 μM ADA overnight, mass spectrum analysis
T1 construct: Adenosine deaminase (ADA) isolated from calf intestine; purchased Boehringer Mannheim; host or cells: calf intestine (tissue-isolated)
T1 sequence (P56658 1-363): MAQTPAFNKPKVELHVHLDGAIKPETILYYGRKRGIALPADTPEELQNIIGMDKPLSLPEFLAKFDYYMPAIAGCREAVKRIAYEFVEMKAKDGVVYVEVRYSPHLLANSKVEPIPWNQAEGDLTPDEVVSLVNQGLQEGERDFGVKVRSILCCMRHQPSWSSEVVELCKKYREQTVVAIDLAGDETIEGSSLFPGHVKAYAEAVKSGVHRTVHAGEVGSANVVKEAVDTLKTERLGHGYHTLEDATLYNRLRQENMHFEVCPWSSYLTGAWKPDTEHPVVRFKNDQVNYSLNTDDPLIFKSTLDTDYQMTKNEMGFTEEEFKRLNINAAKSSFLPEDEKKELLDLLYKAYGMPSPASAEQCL
Method: Adenosine deaminase (ADA) isolated from calf intestine was purchased from Boehringer Mannheim. The assay was performed in Dulbecco's PBS buffer (Na2HPO4, 8 mM; […] KCl, 2.7 mM; NaCl, 138 mM; pH 7.2) at room temperature (23° C.). […] Taking the limit of the UV assay method, the spontaneous hydrolysis of viramidine will be less than 2.5×10^−5 min^−1. […] The enzyme turnover number was estimated about 2.5 min^−1 at the current assay condition.

[5] = Spontaneous hydrolysis in Dulbecco's PBS buffer without enzyme; format: physicochemical
Method: Adenosine deaminase (ADA) isolated from calf intestine was purchased from Boehringer Mannheim. The assay was performed in Dulbecco's PBS buffer (Na2HPO4, 8 mM; […] KCl, 2.7 mM; NaCl, 138 mM; pH 7.2) at room temperature (23° C.). […] Taking the limit of the UV assay method, the spontaneous hydrolysis of viramidine will be less than 2.5×10^−5 min^−1.

RBCs = assay: In vitro transport into RBCs; format: cell-based; conditions: in vitro studies (data not shown)
erythrocytes = assay: Phosphorylation in erythrocytes; format: cell-based
Text: For example, the selectivity of the pharmacological effect of 1-beta-D-ribofuranosyl-1,2,4-triazole-3-carboxamide (Ribavirin, Structure 1) is increased by covalently coupling an ═NH group to Ribavirin to form a carboxamidine group. Ribavirin is known to have antiviral properties in hepatitis virus-infected hepatocytes (e.g., see review Marcellin, P. and Benhamou J.; Treatment of chronic viral hepatitis, Baillieres Clin Gastroenteol 1994 June; 8(2):233-53). It is also known, that Ribavirin is readily phosphorylated in erythrocytes to the pharmacologically active form Ribavirin-phosphate at a significant rate (e.g., Homma, M. et al. High-performance liquid chromatographic determination of Ribavirin in whole blood to assess disposition in erythrocytes; Antimicrob Agents Chemother 1999 November; 43(11):2716-9), which reduces the selective pharmacological effect.

[6] = Toxicity findings (hemolytic anemia, RBCs) in Rhesus monkeys; conditions: 60 mg/kg followed by 30 mg/kg*day for 10 days
[7] = RBC radioactivity in portal vein-cannulated cynomolgus monkeys; conditions: for Medium RBC Radioactivity (Monkeys - multiple doses) / Medium RBC Radioactivity (Monkeys - single dose) / Time to peak radioactivity concentration in RBC: cynomolgus monkeys; for Medium RBC Radioactivity (Monkeys - multiple doses): projected steady state; for Medium RBC Radioactivity (Monkeys - single dose) / Time to peak radioactivity concentration in RBC: single oral dose 30 mg/kg

Structure (SMILES) | Share of liver radioactivity accounted for by modified Ribavirin [1] | Total Liver Radioactivity [1] [μg equiv/g] | RTCA in liver ([1]; analyte RTCA) | Modified Ribavirin in liver [1] | Medium RBC Radioactivity (Mice) [2] [μg equiv/g] | Radioactivity concentration Cmin in RBCs, comparison ([2]; modified Ribavirin vs Ribavirin) | RBC radioactivity as compared to Ribavirin ([3]; monkeys) [%] | Liver radioactivity concentration, higher than after oral dosing of Ribavirin ([3]; portal vein-cannulated monkeys, oral administration) | Conversion to Ribavirin [4] | Spontaneous hydrolysis rate ([5]; limit of the UV assay method, pH 7.2) | Spontaneous hydrolysis in buffer ([5]; no enzyme, pH 7.2, 1.5 h, 23° C.) | Effect of zinc ion on spontaneous hydrolysis rate ([5]; zinc ion added to the buffer) | Transport into RBCs (RBCs) | Phosphorylation in erythrocytes (erythrocytes) | Toxicity findings on RBCs [6] | Medium RBC Radioactivity (Monkeys - multiple doses) ([7]; multiple dosing at 30 mg/kg) | Medium RBC Radioactivity (Monkeys - single dose) [7] | Time to peak radioactivity concentration in RBC [7] [h] | Radioactivity concentration Cmin in the liver, comparison ([1]; Ribavirin compared to modified Ribavirin) | Projected steady-state RBC radioactivity concentrations, comparison ([7]; multiple dosing at 30 mg/kg, Ribavirin compared to modified Ribavirin)
N=C(N)c1ncn([C@@H]2O[C@H](CO)[C@@H](O)[C@H]2O)n1 [modified Ribavirin, 1-beta-D-ribofuranosyl-1,2,4-triazole-3-carboxamidine] | about 30% | 23.8 | not detected | ˜7.2 μg eguiv/g μg equiv/g | 0.38 | significantly lower | ~12 | approximately 50% | more than 75% | less than 2.5×10^−5 min^−1 | no spontaneous hydrolysis | does not enhance the spontaneous hydrolysis rate | not directly transported into RBCs | is not, or is only insignificantly phosphorylated in erythrocytes | no significant changes in RBCs | ˜606 μg equiv/g | ˜17 μg equiv/g | 24 | – | –
NC(=O)c1ncn([C@@H]2O[C@H](CO)[C@@H](O)[C@H]2O)n1 [Ribavirin, 1-beta-D-ribofuranosyl-1,2,4-triazole-3-carboxamide, reference compound] | – | 18.4 | – | not detected | 1.36 | – | – | – | – | – | – | – | – | – | suffered from hemolytic anemia and significant decrease in RBCs | ˜5089 μg equiv/g | ˜41 μg equiv/g | 24 | significantly lower | significantly higher
